Laboratory results reported in the SangsterLogP compilation.

Row | logP | Compound
1 | 0.79 | C=C(C)C(=O)OC
2 | 1.5 | C=C(C)C(=O)OCC
3 | 3.31 | C=C(C)C(=O)OCC(O)COc1cccc2ccccc12 (stereo unspecified)
4 | 3.77 | C=C(C)C(=O)OCC(C)(O)COc1cccc2ccccc12 (stereo unspecified)
5 | 1.09 | Cc1ccc(N(CCO)CCO)cc1
6 | 2.18 | C=Cc1ccc(C(=O)O)cc1
7 | 1.38 | COC(C(=O)c1ccccc1)c1ccccc1 (stereo unspecified)
8 | 2.18 | C=C(C)C(=O)OCC(O)COc1ccccc1 (stereo unspecified)
9 | 1.88 | C=C(C)C(=O)OCCOCCOCCOC(=O)C(=C)C
10 | 3.46 | O=C(OOC(=O)c1ccccc1)c1ccccc1

Row | Compound | logP
11 | C=C(C)C(=O)OCC(CC)CCCC (stereo unspecified) | 4.67
